Data taken from publication PMC12036875, “Mitochondria-targeting natural product rhein conjugated with dichloroacetate as the dual inhibitor of glycolysis and oxidative phosphorylation to off energize cancer cells and induce ROS storm” (Theranostics, 2025).

Legend:
Assay type in all cases: cell-based, Mouse
[1] = system: phospho-Ser^293 PDHA1 protein in 4T1 cells; assay: Western blot of phospho-Ser293 PDHA1; conditions: 6.25 μM, 24 h, vs control
Protocol: Then, the phospho-Ser^293 PDHA1 protein level in 4T1 cells, which is regulated by PDK1, was further analyzed with western blot (Figure 2C). […] The conjugate successfully altered glycolysis of 4T1 cells via PDK-PDH axis.
(§1) 4T1 cells were seeded in 6-well plates at a density of 20 × 10^4 cells per well and cultured for 24 h. Then the cells were treated with rhein, DCA, R + D and Rhein-DCA conjugate, each at a concentration of 6.25 μM for 24 h. Cells were washed twice with PBS and lysed by RIPA total protein extraction solution containing multiple protease inhibitors for 30 min while being maintained on ice. The lysate was centrifuged at 9391 G for 10 min at 4 °C to obtain the total protein solution. The concentrations of total protein were determined with BCA Protein Assay Kit. The protein was further denatured with 5 × protein loading buffer at 100 °C for 15 min. Sodium dodecyl sulfate polyacrylamide gel electrophoresis was conducted to separate the protein and transferred it to PVDF membranes. The PVDF membranes were blocked with 5% skim milk for 30 min at room temperature and incubated with indicated primary antibodies: Anti-Cytochrome C Rabbit pAb (1:1000); Anti-β-actin Rabbit pAb (1:1000); or Anti-PDHA1 Rabbit mAb (phosphoS^293) (1:1000) overnight at 4 °C. The membranes were incubated with HRP conjugated Goat Anti-Rabbit IgG (H+L) (1:5000), respectively, for 30 min at room temperature and then analyzed by chemiluminescence (Clinx,6100).

4T1 cells [2] = assay: Scratch (migration) assay; conditions: 6.25 μM, 24 h
Protocol: Cellular migration is the pivotal characteristic of cancer metastasis. […] Considering the inhibition of the glycolysis pathway resulting in a decrease of lactate, we studied the migration behavior of aggressive 4T1 cells in vitro. The results of scratch assay were shown in Figure S15, after being treated with different drugs for 24 h, the wound borders of 4T1 cells gradually got closer in control, rhein, DCA and R + D groups, and the migration rates reached approximately 40%.
4T1 cells were seeded in 6-well plate and incubated for 24 h. A straight scratch line across the cell monolayer was marked at the bottom of the plate with 200 μL pipette tip. Plate was washed twice with PBS to remove the detached cells. 6.25 μM of indicated drugs were added into each well, then the wound borders of cells were imaged at 0 h, 12 h and 24 h, respectively. The migration rate was calculated as follows: migration rate (%) = (initial scratch area - final scratch area) / initial scratch area × 100%, and the scratch area was processed with the Image J derivatives Fiji software.

4T1 cells [3] = assay: Oxygen consumption rate (Seahorse); conditions: 6.25 μM, 24 h
Source text: TMRE is a lipophilic cationic fluorescent probe (Ex = 550 nm, Em = 575 nm). The accumulation of TMRE within the mitochondria would reduce with the mitochondrial depolarization, resulting in a decrease in fluorescence intensity. […] The integrity of mitochondria is significant for mitochondrial bioenergy production. Given the influence of ETC, NADH dehydrogenase, ATP synthase and the decrease of Δψm, we speculated that the ATP production from OXPHOS would be hindered by Rhein-DCA conjugate. Mitochondrial bioenergetic processes of 4T1 cells was measured by oxygen consumption rate (OCR) to reflect the capability of OXPHOS.
The mitochondrial bioenergetics of 4T1 cells was investigated by Seahorse Extracellular Flux analyser. 4T1 cells were seeded in 24-well plates (Seahorse Bioscience) at a density of 2 × 10^4 cells per well and incubated for 24 h at 37 °C in 5% CO2 atmosphere. The cells were treated with indicated drugs at a concentration of 6.25 μM for 24 h. At the same time, XF sensor cartridges were hydrated overnight in a CO2-free environment. The cells were cultured in the incubator for 1 h at 37 °C without CO2 after washed with Seahorse XF assay medium. Three baseline measurements of OCR were detected with Seahorse XFe24 analyzer when the oligomycin (1.0 μM, ATP synthase complex inhibitor), FCCP (1.0 μM, ATP synthesis uncoupler […]) and the mixture of antimycin-A (1.0 μM, inhibitor of complex III) and rotenone (1.0 μM, inhibitor that prevents the transfer of electrons from the Fe-S center in complex I to ubiquinone) were sequentially injected for the detection of the oxygen consumption rate.

4T1 cells [4] = assay: Intracellular ATP detection; conditions: 6.25 μM, vs control
Protocol: Rhein-DCA conjugate achieved synergetic fatal energy depletion in tumor cells.
The intracellular ATP content was measured with PhosphoWorks™ Colorimetric ATP Assay Kit. Specifically, 4T1 cells and 293T cells were seeded in 12-well plates at a density of 2 × 10^5 cells per well and further cultured for 24 h at 37 °C in an atmosphere of 95% air and 5% CO2. For the control group, the culture medium was replaced with fresh medium. For the rhein, DCA, R + D, and Rhein-DCA groups, the medium was replaced with fresh medium containing the indicated drugs at a concentration of 6.25 μM. It should be noted that in the Rhein-DCA + CsA group, the cells were pretreated with CsA (2.5 μM) for 1 h at 37 °C before being cultured with Rhein-DCA. The cells were collected and suspended in 80 μL triton-X-100 (1% in PBS) to obtain cell lysates by twice freeze-thaw. Then the supernatant was collected after centrifugation at 9391 G for 10 min for subsequent analysis. Finally, 50 μL of supernatant was separately mixed evenly with 50 μL ATP working solution and the mixture was incubated for 30 min at room temperature. The absorbance at 570 nm was monitored with microplate reader.

[5] = system: Cyt C protein in 4T1 cells; assay: Western blot of Cyt C; conditions: 6.25 μM, 24 h
Protocol: The opening of mPTP in mitochondria often leads to the release of pro-apoptotic factor such as cytochrome C (Cyt C), thereby inducing apoptosis. Western blot was applied to measure the level of Cyt C in 4T1 cells after treatment with different drugs. The ratio of the integrated density value of target Cyt C protein to the internal parameter β-actin protein was also analyzed (Figure 4B). […] The released Cyt C in the rhein and R + D groups was 4.4- and 5.0-fold than that of the control group, respectively, clarifying that rhein component could boost the release of Cyt C in 4T1 cells.
as §1

Compound | phospho-Ser293 PDHA1 protein level (western blot) [1] | migration rate (4T1 cells [2]) | effect on OCR / cellular OXPHOS (basal respiration, ATP production, maximal respiration) (4T1 cells [3]) | intracellular ATP amount (4T1 cells [4]) | released Cyt C relative to control group (Cyt C/β-actin) [5] | released Cyt C, in words [5]
O=C(O)c1cc(O)c2c(c1)C(=O)c1cccc(O)c1C2=O [Rhein, 4,5-dihydroxyanthraquinone-2-carboxylic acid] | no obvious down-regulated trend | approximately 40% | moderate effects | decrease | 4.4 fold | 
O=C(OCCOC(=O)C(Cl)Cl)c1cc(O)c2c(c1)C(=O)c1cccc(O)c1C2=O [Rhein-DCA] | lowest expression | 8% | complete disruption | significant decrease |  | more Cyt C than rhein and R + D groups
O=C(O)C(Cl)Cl [DCA, Dichloroacetate] | slightly downregulation | approximately 40% | minor effect | slight increase |  | could almost be disregarded
